Source: patent publication US11207312B2, “Metallo-beta-lactamase inhibitors and methods of use thereof” (priority 2017, dated 2021)

Tests used:
[1] = test system: P. aeruginosa MB9799 (efflux-, IMP-1 plasmid); assay type: cell-based, Pseudomonas aeruginosa; conditions: efflux − (MB9799) strain; imipenem at 2 μg/mL; in the presence of a class A, C, D serine β-lactamase inhibitor closely related to relebactam
How it was run: (§1)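 Isogenic P. aeruginosa PAO1 strains (efflux+ and multiple-efflux-pump-disrupted) carrying plasmid IMP-1, with inducible AmpC, tested by broth microdilution. Imipenem and/or ceftazidime fixed, usually at CLSI breakpoint, plus fixed class A/C β-lactamase inhibitor; titrated MBL inhibitor concentration restoring susceptibility recorded and compared between strains as efflux fold difference.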

[2] = test system: Escherichia coli expressing NDM-1 (CLB30016); assay type: cell-based; conditions: with imipenem 1 μg/ml; 95% inhibition of bacterial growth
How it was run: (§2)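 Read-out is absorbance after 22–24 h at 35 °C, with MITC95 taken as the lowest inhibitor concentration that, alongside imipenem at 1 μg/ml, suppresses 95% of bacterial growth. Inocula came from saline-suspended colonies diluted 1:100 into 1.1× CAMHB.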

[3] = test system: Serratia marcescens expressing IMP-1 (CL5741); assay type: cell-based; conditions: with imipenem 1 μg/ml; 95% inhibition of bacterial growth
How it was run: as §2

[4] = test system: Klebsiella pneumoniae expressing VIM-1 (IHMA599644); assay type: cell-based; conditions: with imipenem 1 μg/ml; 95% inhibition of bacterial growth
How it was run: as §2

VIM-1 = VIM-1 (Pseudomonas aeruginosa (strain ATCC 15692 / DSM 22644 / CIP 104116 / JCM 14847 / LMG 12228 / 1C / PRS 101 / PAO1), UniProt A0A0F7KYQ8); assay: biochemical; conditions: CCF2-FA fluorescence assay, 2 hours at 25° C.; read-out: VIM1 IC50
How it was run: (§3)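 Metallo-β-lactamase activity read by fluorescence against CCF2-FA (1.25 μM final) in 100 mM KH2PO4 pH 7 with 0.005% Tween-20 and 10 μM ZnSO4; enzyme final at 1 pM NDM-1, 2 pM IMP-1 or 30 pM VIM-1. Inhibitor at 20 to 0.00063 μM, 2 h at 25° C; IC50 by 4-parameter fit.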

IMP-1 = IMP-1 (Serratia marcescens, UniProt P52699); assay: biochemical; conditions: CCF2-FA fluorescence assay, 2 hours at 25° C.; read-out: IMP1 IC50
IMP-1, sequence (P52699 whole entry, looked up, species assumed): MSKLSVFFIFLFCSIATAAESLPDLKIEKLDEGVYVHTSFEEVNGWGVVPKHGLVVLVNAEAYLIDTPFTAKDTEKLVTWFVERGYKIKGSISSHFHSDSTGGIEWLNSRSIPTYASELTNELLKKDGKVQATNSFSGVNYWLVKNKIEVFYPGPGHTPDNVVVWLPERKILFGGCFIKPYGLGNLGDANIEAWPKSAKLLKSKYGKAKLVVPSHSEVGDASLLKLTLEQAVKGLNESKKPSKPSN
How it was run: as §3

NDM-1 = NDM-1 (Klebsiella pneumoniae, UniProt C7C422); assay: biochemical; assay type: biochemical; conditions: CCF2-FA fluorescence assay, 2 hours at 25° C.
NDM-1, sequence (C7C422 whole entry, looked up, species assumed): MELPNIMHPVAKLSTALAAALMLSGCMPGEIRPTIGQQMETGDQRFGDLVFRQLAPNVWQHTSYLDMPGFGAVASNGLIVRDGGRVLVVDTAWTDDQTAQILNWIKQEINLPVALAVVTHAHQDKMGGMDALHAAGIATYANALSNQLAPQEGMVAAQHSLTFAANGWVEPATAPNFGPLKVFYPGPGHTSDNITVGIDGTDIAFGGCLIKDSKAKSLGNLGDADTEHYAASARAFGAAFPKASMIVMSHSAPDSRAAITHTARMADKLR
How it was run: as §3

[5] = test system: P. aeruginosa MB9798 (efflux+, IMP-1 plasmid); conditions: for MB9798 MITC95 P. aeruginosa uM Efflux WT: efflux + (MB9798) strain, imipenem at 2 μg/mL, in the presence of a class A, C, D serine β-lactamase inhibitor closely related to relebactam; for Efflux ratio: fold difference between efflux+ (MB9798) and efflux− (MB9799) strains
How it was run: as §1

VIM-2 = VIM-2 (Escherichia coli, UniProt Q5U7L7); assay: biochemical; conditions: CCF2-FA fluorescence assay; read-out: VIM2 IC50

| Compound | MB9799 MITC95 P. aeruginosa uM Efflux Mutant [1] [µM] | CLB30016 E. coli MITC95 NDM [2] [µM] | CL5741 S. marcescens MITC95 IMP [3] [µM] | IHMA599644 K. pneumoniae MITC95 VIM [4] [µM] | IC50 (VIM-1) [nM] | IC50 (IMP-1) [nM] | IC50 (NDM-1) [nM] | MB9798 MITC95 P. aeruginosa uM Efflux WT [5] [µM] | Efflux ratio [5] | IC50 (VIM-2) [nM] |
| --- | --- | --- | --- | --- | --- | --- | --- | --- | --- | --- |
| NCCN1CCN(c2ccc(S(=O)(=O)NC[C@H](O)CN)c(S(N)(=O)=O)c2-c2nnn[nH]2)CC1 [Example 51, (R)-N1-(3-amino-2-hydroxypropyl)-4-(4-(2-aminoethyl)piper-azin-1-yl)-3-(1H-tetrazol-5-yl)benzene-1,2-disulfonamide] | 0.39 | 0.78 | 0.39 | 0.78 | 0.29 | 1.92 | 1.4 | 0.78 | 2.00 | 3.07 |
| NS(=O)(=O)c1c(S(=O)(=O)N[C@@H]2CCNC2)ccc(N2CCC3(CC2)CNC3)c1-c1nnn[nH]1 [Example 52, (R)-N1-(pyrrolidin-3-yl)-4-(2,7-diazaspiro[3.5]no-nan-7-yl)-3-(1H-tetrazol-5-yl)benzene-1,2-disulfonamide] | 0.78 | 0.78 | 1.56 | 1.56 | 0.5 | 3.06 | 0.48 | 0.78 | 1.00 | 8.18 |
| NS(=O)(=O)c1c(S(=O)(=O)C2CNC2)ccc(N2CCN(CCCO)CC2)c1-c1nnn[nH]1 [Example 53, 6-(azetidin-3-ylsulfonyl)-3-[4-(3-hydroxypropyl)piperazin-1-yl]-2-(1H-tetrazol-5-yl)benzenesulfonamide] | 1.56 | 0.39 | 0.39 | 3.13 | 25.1 | 7.81 | 8.79 | 6.25 | 4.00 | 35.5 |
| NS(=O)(=O)c1c(S(=O)(=O)C2CNC2)ccc(N2CCN(CCO)CC2)c1-c1nnn[nH]1 [Example 54, 6-(azetidin-3-ylsulfonyl)-3-[4-(2-hydroxyethyl)piperazin-1-yl]-2-(1H-tetrazol-5-yl)benzenesulfonamide] | 1.56 | 0.39 | 0.39 | 6.25 | 66.1 | 21.9 | 16.7 | 6.25 | 4.00 | 69.5 |
| NS(=O)(=O)c1c(S(=O)(=O)C2CNC2)ccc(N2C[C@H](O)C[C@@H](O)C2)c1-c1nnn[nH]1 [Example 55, 6-(azetidin-3-ylsulfonyl)-3-[(3R,5R)-3,5-dihydroxypiperidin-1-yl]-2-(1H-tetrazol-5-yl)benzenesulfonamide] | 6.25 | 1.56 | 12.50 | 12.50 | 62.3 | 200 | 51.5 | 100.00 | 16.00 | 145 |
| NS(=O)(=O)c1c(S(=O)(=O)C2CNC2)ccc(N2CCC(CCO)CC2)c1-c1nnn[nH]1 [Example 56, 6-(azetidin-3-ylsulfonyl)-3-[4-(2-hydroxyethyl)piperidin-1-yl]-2-(1H-tetrazol-5-yl)benzenesulfonamide] | 1.56 | 6.25 | 3.13 | 6.25 | 0.25 | 0.45 | 0.76 | 6.25 | 4.00 | 0.82 |
| NS(=O)(=O)c1c(S(=O)(=O)C2CNC2)ccc(N2CCCC(CO)C2)c1-c1nnn[nH]1 (stereo not shown) [Example 57, 6-(azetidin-3-ylsulfonyl)-3-[3-(hydroxymethyl)piperidin-1-yl]-2-(1H-tetrazol-5-yl)benzenesulfonamide] | 1.56 | 3.13 | 3.13 | 12.50 | 1.44 | 4.38 | 2.48 | 25.00 | 15.99 | 1.87 |
| NS(=O)(=O)c1c(S(=O)(=O)C2CNC2)ccc(N2CCC(CO)CC2)c1-c1nnn[nH]1 [Example 58, 6-(azetidin-3-ylsulfonyl)-3-[4-(hydroxymethyl)piperidin-1-yl]-2-(1H-tetrazol-5-yl)benzenesulfonamide] | 1.56 | 3.13 | 6.25 | 6.25 | 0.42 | 0.85 | 1.03 | 6.25 | 4.00 | 1.67 |
| CC1(O)CCCN(c2ccc(S(=O)(=O)C3CNC3)c(S(N)(=O)=O)c2-c2nnn[nH]2)C1 (stereo not shown) [Example 59, 6-(azetidin-3-ylsulfonyl)-3-(3-hydroxy-3-methylpiperidin-1-yl)-2-(1H-tetrazol-5-yl)benzenesulfonamide] | 3.13 | 6.25 | 6.25 | 6.25 | 1.84 | 8.38 | 3.22 | 50.00 | 16.00 | 2.18 |
| NS(=O)(=O)c1c(S(=O)(=O)C2CNC2)ccc(N2CCC[C@H](O)C2)c1-c1nnn[nH]1 [Example 60, 6-(azetidin-3-ylsulfonyl)-3-[(3S)-3-hydroxypiperidin-1-yl]-2-(1H-tetrazol-5-yl)benzenesulfonamide] | 3.13 | 3.13 | 3.13 | 6.25 | 1.44 | 6.05 | 4.23 | 12.50 | 4.00 | 2.67 |
| NS(=O)(=O)c1c(S(=O)(=O)C2CNC2)ccc(N2CC[C@H](CO)[C@H](F)C2)c1-c1nnn[nH]1 [Example 61, 6-(azetidin-3-ylsulfonyl)-3-[(3S,4R)-3-fluoro-4-(hydroxymethyl)piperidin-1-yl]-2-(1H-tetrazol-5-yl)benzenesulfonamide] | 1.56 | 1.56 | 3.13 | 6.25 | 0.44 | 1.28 | 0.9 | 6.25 | 4.00 | 2.12 |
| NS(=O)(=O)c1c(S(=O)(=O)C2CNC2)ccc(N2CC3C(CO)C3C2)c1-c1nnn[nH]1 (stereo not shown) [Example 62, 6-(azetidin-3-ylsulfonyl)-3-[6-(hydroxymethyl)-3-azabicyclo[3.1.0]hex-3-yl]-2-(1H-tetrazol-5-yl)benzenesulfonamide] | 1.56 | 1.56 | 3.13 | 6.25 | 3.07 | 4.89 | 2.86 | 50.00 | 31.99 | 10.5 |
| NS(=O)(=O)c1c(S(=O)(=O)N[C@@H]2CCNC2)ccc(N2CCC(O)CC2)c1-c1nnn[nH]1 [Example 63, 4-(4-hydroxypiperidin-1-yl)-N1-[(3R)-pyrrolidin-3-yl]-3-(1H-tetrazol-5-yl)benzene-1,2-disulfonamide] | 1.56 | 3.13 | 3.13 | 6.25 | 0.16 | 0.47 | 0.31 | 1.56 | 1.00 | 0.66 |
